How the values were obtained:
Assay type in all cases: in vivo
[1] = tested on: Rhipicephalus (Boophilus) microplus larvae (strain Parkhurst, resistant against synthetic pyrethroids); assay: Rhipicephalus (Boophilus) microplus in-vitro contact test, larval cattle tick; conditions: after 48 hours, read-out: efficacy (larvae dead or moribund); for pest or weed control at 1 µg/cm2, 100 g/ha: 1 μg/cm^2 (=100 g/ha); for pest or weed control at 5 µg/cm2, 500 g/ha: 5 μg/cm^2 (=500 g/ha)
Method in brief: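 Pyrethroid-resistant larvae (strain Parkhurst), 20–50 per tube, exposed by contact to a dried acetone film of compound (5 μg/cm² at 900 ppm) for 48 h at 27 °C and 85% humidity. Percent dead or moribund larvae scored from negative geotactic behaviour.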

[2] = tested on: adult engorged female ticks (Rhipicephalus microplus); assay: Rhipicephalus (Boophilus) microplus injection test; conditions: 168 h, 4 μg/animal, egg deposition after 7 days, read-out: efficacy (infertile eggs)
Method in brief: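 Abdominal injection, 1 μL compound/DMSO, n=5 engorged adult females; climate-chamber incubation. Readout d7: fertile egg laying; doubtful eggs held to hatch (~42 d). % efficacy = infertile eggs (100% all infertile).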

[3] = tested on: adult unfed cat fleas (Ctenocephalides felis); assay: Ctenocephalides felis oral test; conditions: 48 h, 100 ppm in citrated cattle blood, after 2 days
Method in brief: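 About 20 adult unfed cat fleas fed through parafilm on citrated cattle blood containing compound (from a DMSO concentrate). Blood held at 37° C, fleas at room temperature. Mortality in % scored after 2 days.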

[4] = tested on: green peach aphid (Myzus persicae); assay: Myzus persicae oral test; conditions: 120 h, 0.8 ppm, after 5 days
Description: Solvent: 100 parts by weight acetone
To produce a suitable preparation of active compound, 1 part by weight of active compound is mixed with the stated amount of solvent, and the concentrate is diluted with water to the desired concentration.
50 μL compound solution is filled in microtiter plates and 150 μL IPL41 insect medium (33%+15% sugar) is added to obtain a total volume of 200 μL per well. Afterwards the plates are sealed with parafilm through which a mixed population of the green peach aphid (Myzus persicae) can suck on the compound preparation.
After 5 days mortality in % is determined. 100% means all aphids have been killed and 0% means none of the aphids have been killed.

[5] = tested on: green peach aphid (Myzus persicae); assay: Myzus persicae spray test; conditions: foliar, 120 h, Chinese cabbage leaf disks, after 5 days
Method in brief: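 Chinese cabbage leaf disks carrying all instars of M. persicae sprayed with compound in acetone/DMF, diluted in water with 1000 ppm alkylarylpolyglycol ether emulsifier. Percent mortality scored after 5 days (100% = all aphids killed).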

[6] = tested on: fall armyworm larvae (Spodoptera frugiperda); assay: Spodoptera frugiperda spray test; conditions: 168 h, maize leaf sections, after 7 days
Method in brief: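 Percent larval kill read at day 7, from 0% (no caterpillars dead) to 100% (all dead). Larvae were placed on dried Zea mays leaf discs previously sprayed with test preparations made from an acetone/DMF solution diluted in 1000 ppm emulsifier-containing water.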

[7] = tested on: adult mosquitoes Aedes aegypti strain MONHEIM; assay: Aedes aegypti test (AEDSAE surface treatment & contact assay); conditions: 24 hours after contact, read-out: mortality (efficacy); for mortality at 4 mg/m2: surface concentration 4 mg/m^2, 30 minutes exposure; for mortality at 20 mg/m2: surface concentration 20 mg/m^2, 30 minutes exposure
Description: Aedes aegypti Test (AEDSAE Surface Treatment & Contact Assay)
(§1) Solvent: Aceton+2000 ppm rapeseed oil methyl ester (RME)
(§2) In order to produce a sufficient, active ingredient containing solution it is necessary to solve the test compound in the solvent-mix (acetone at 2 mg/ml/RME 2000 ppm). This solution is pipetted onto a glazed tile and after evaporation of the acetone, adult mosquitoes of the species Aedes aegypti strain MONHEIM are placed onto the dried surface. The exposure time is 30 minutes.
(§3) Mortality in percent (%) is determined 24 hours after contact of the insects to the treated surface. 100% mortality means that all tested insects are dead, whereas 0% means that no insect died.

[8] = tested on: adult Blattella germanica strain PAULINIA; assay: Blattella germanica test (BLTTGE surface treatment & contact assay); conditions: surface concentration 20 mg/m^2, 30 minutes exposure, 24 hours after contact, read-out: mortality (efficacy)
Description: Blattella germanica Test (BLTTGE Surface Treatment & Contact Assay)
as §1
as §2, with “animals” for “mosquitoes”, “Blattella germanica” for “Aedes aegypti”, “PAULINIA” for “MONHEIM”
as §3

SMILES | pest or weed control at 1 µg/cm2, 100 g/ha [1] | pest or weed control at 5 µg/cm2, 500 g/ha [1] | pest or weed control at 0.004 mg [2] | mortality at 100 ppm [3] | mortality at 0.8 ppm [4] | mortality at 100 g/ha [5] | mortality at 100 g/ha [6] | mortality at 4 mg/m2 [7] | mortality at 20 mg/m2 [7] | mortality at 20 mg/m2 [8]
CC(NC(=O)c1cc(Cl)cc(C(F)(F)F)c1)c1nccnc1-c1ncccn1 (racemic) [Example I-10, (rac)-3-Chloro-N-(1-(3-(pyrimidin-2-yl)pyrazin-2-yl)ethyl)-5-(trifluoromethyl)benzamide] | 90% | 80% | 100% | 100% | 90% | 100% | 100% | 80 to 100% | 80 to 100% | 80 to 100%
CC(NC(=O)c1cc(C(F)(F)F)cc(C(F)(F)F)c1)c1nccnc1-c1ncccn1 (racemic) [Example I-8, (rac)-N-(1-(3-(Pyrimidin-2-yl)pyrazin-2-yl)ethyl)-3,5-bis(trifluoromethyl)benzamide] | 100% | 100% | 100% | 100% | 100% | 100% | 100% | 80 to 100% | 80 to 100% | 80 to 100%

— patent publication US12583851B2, “Heteroaryl-substituted pyrazine derivatives as pesticides” (Elanco Animal Health GmbH, priority 2019, dated 2026)
